From patent publication US7884136B2, “Modified-release formulations of a bupropion salt” (Biovail Laboratories International S.R.L., priority 2005, dated 2011)
Marks after values point to notes of the source that are not given here.

Tests used:
[1] = Moisture content of bupropion salts by KF; format: physicochemical; settings: for KF (moisture content), Original (Initial APIs): original API salts
Procedure: (§1) The eight salts were first evaluated by HPLC, KF, pH and DSC for purity, water content, aqueous pH and possible polymorphs.
(§2) The salts were analysed by DSC (at 10° C./min from 30° C. up to 400° C.) and the pH (aq. 0.5%), and the moisture content by KF were also measured. The TGA was performed on the HCl, maleate, tosylate and HBr salts.

[2] = Thermal analysis by TGA of bupropion salts; format: physicochemical
Procedure: 2-5 mg of each salt was placed in an aluminium pan and covered with its lid. DSC was run for each sample at the rate of 10° C./min (for HBr salt, different rates were used to investigate for polymorphs) from 30° C. to 400° C. TGA was also used for each of the HBr, HCl, maleate and tosylate salts.
as §2

[3] = Forced degradation stability study of bupropion salts spiked with placebo/excipients, closed vials, 40° C./75% RH, HPLC assay and impurities; settings: 32 days, closed vials
Procedure: The stability of the salts was evaluated based on the formation of the main degradation products (see below) as determined by HPLC analysis and the % potency (or assay) of the API, after specific time periods in the stability chamber. The effect of the addition of solvents, such as water, ethanol and isopropyl alcohol, was also studied.
The samples of each salt and the spiked salts with the bupropion HCl XL were prepared under the conditions mentioned in Table 4. […] The stability of the bupropion salts were evaluated based on the formation of the main degradation product 3-chlorobenzoic acid (3-CBZ) and the intermediate degradation products diketone 827U76 and the ketohydroxyl derivatives (20U78 and 852U77) (Scheme 2).
As mentioned above, the stability samples were prepared in 2 mL vials and used directly for assay and impurity analysis by HPLC without further sample preparations to minimize errors.

[4] = pH of 0.5% aqueous solution of bupropion salts; format: physicochemical; settings: 0.5% aqueous solution
Procedure: as §1, §2

[5] = Stability of bupropion HBr polymorphic forms I, II and III by PXRD under ICH conditions; format: physicochemical; settings: for Stability of the polymorphic form (words): ICH conditions 40° C., 75% R.H.; for Stability of the polymorphic form (words) / PXRD profile / crystalline form after storage (words): hydrobromide; for PXRD profile / crystalline form after storage (words): ICH conditions 40° C./75% r.h., 1 month
Procedure: It is well known that organic molecules can crystallize into solid forms. Moreover the same organic compound may assume different crystalline arrangements in solid form, depending on the conditions under which the crystal product is formed. This phenomenon is commonly known as polymorphism. […] The crystal forms of the products obtained in this study were determined by powder X-ray diffraction (PXRD). A RIGAKU miniflex instrument (Radiation Cu K∝, generator 30 KV, filter Ni) was used to obtain the PXRD data.
The three polymorphic forms were subjected to stability testing. […] Samples of the polymorphic forms II and III were tested after 1 month under the same accelerated stability conditions.
Samples of bupropion HBr form I were subjected to the conditions for the accelerated stability study as described in Example 10 and the shelf life stability study as described in Example 11.
10 g of bupropion HBr form I were dissolved in a mixture of 170 ml of acetone and 7 ml of water. The mixture was brought to reflux with dissolution of the solid. The solution was then cooled to room temperature. After one night the precipitate formed was filtered and dried at 40° C. under vacuum (30 mmHg) for 12 hours. […] The crystalline form was checked after maintaining the product under these conditions for 1 month.
The mixture was brought to reflux obtaining complete dissolution of the solid. The solution was then cooled to room temperature without stirring and left in these conditions for 18 hours. The resulting crystalline solid was then filtered and dried under vacuum (30 mmHg) at 50° C. for 4 hours. […] The crystalline form was checked after maintaining the product in these conditions for 1 month.

Bupropion tosylate
KF (moisture content), Original (Initial APIs) [1]: 1.71%
KF (moisture content), Original (Initial APIs) ([1]; listed as Bup-Tosylate): 1.71* %
KF, After recrystallization (R&D), Tested after 2 Months ([1]; re-crystallized salt, 2 months): 0.18%
KF, After recrystallization (R&D), Tested after 1 day ([1]; re-crystallized salt): 0.23%
KF, After recrystallization (R&D), Tested after 1 day ([1]; re-crystallized salt, listed as Bup-Tosylate): 023%
TGA: residue at 400° C. ([2]; 400° C.): 10.3%
TGA: weight lost between room temperature and 100° C. ([2]; room temperature to 100° C.): 1.3%
Content of impurity 852U77, order of salts ([3]; In IPA/EtOH): fumarate > HBr ≈ HCl ≈ maleate ≈ tosylate
Total imp., order of salts ([3]; In IPA/EtOH): fumarate > maleate > HBr > HCl > tosylate
Total imp., order of salts ([3]; In water): fumarate > HBr > HCl > tosylate > maleate
pH (aq. 0.5%), Original (Initial APIs) ([4]; original API salts): 5.56
pH (aq. 0.5%), After recrystallization (R&D), Tested after 1 day ([4]; re-crystallized salt): 5.88

Br.CC(NC(C)(C)C)C(=O)c1cccc(Cl)c1 (centres unmarked) [Form III, bupropion hydrobromide]
Stability of the polymorphic form (words) ([5]; listed as form III): not as stable as forms I and II
PXRD profile / crystalline form after storage (words) ([5]; listed as bupropion HBr form III): the majority of the product changed to form II
PXRD profile / crystalline form after storage (words) ([5]; listed as form III): conversion to form II

Br.CC(NC(C)(C)C)C(=O)c1cccc(Cl)c1 (centres unmarked) [Form I, bupropion hydrobromide]
Stability of the polymorphic form (words) ([5]; listed as form I): quite stable
PXRD profile after storage ([5]; accelerated (40° C./75% RH) and shelf life conditions, 3 months and 6 months): gave the same results
